Each structure is given as a SMILES string. Values after ≈ are worked out from the molar mass of the structure shown.

The text below walks through data of patent US4053632A, “Compounds of spiro-amine type and methods for their use” (priority 1971, dated 1977).

This series can be described thus: Solubility in water. The class given is physicochemical. The conditions noted are these: hydrochloride.

On to `CNC1C=CC2(CC1)c1ccccc1C=Cc1ccccc12` (stereo not shown) [Example 12], for which the solubility (usually the concentration that dissolves in the medium under given conditions) was about 10000 µg/mL (≈ 34.8 mM).
